The text below walks through data of US20260132132A1, “3A,4,5,6-TETRAHYDRO-1 H-PYRAZOLO[3,4-C]PYRIDIN-7(7AH)-ONE DERIVATIVES AS FACTOR XIIA INHIBITORS” (KALVISTA PHARMACEUTICALS LIMITED, priority 2022, published 2026).

For assay [1], the target named is T1, Human Factor XIIa (hFXIIa) (Homo sapiens, UniProt P00748).
T1 construct: purchased Enzyme Research Laboratories
T1 sequence (P00748 373-615 limits assumed): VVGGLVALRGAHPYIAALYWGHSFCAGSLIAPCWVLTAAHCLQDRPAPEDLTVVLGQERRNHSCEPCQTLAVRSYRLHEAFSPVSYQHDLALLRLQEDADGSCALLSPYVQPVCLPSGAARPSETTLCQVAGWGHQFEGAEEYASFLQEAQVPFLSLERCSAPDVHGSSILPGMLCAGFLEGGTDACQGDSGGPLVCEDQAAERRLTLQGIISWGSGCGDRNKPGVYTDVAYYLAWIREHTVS
T1 sequence (P00748 20-372 partner limits assumed): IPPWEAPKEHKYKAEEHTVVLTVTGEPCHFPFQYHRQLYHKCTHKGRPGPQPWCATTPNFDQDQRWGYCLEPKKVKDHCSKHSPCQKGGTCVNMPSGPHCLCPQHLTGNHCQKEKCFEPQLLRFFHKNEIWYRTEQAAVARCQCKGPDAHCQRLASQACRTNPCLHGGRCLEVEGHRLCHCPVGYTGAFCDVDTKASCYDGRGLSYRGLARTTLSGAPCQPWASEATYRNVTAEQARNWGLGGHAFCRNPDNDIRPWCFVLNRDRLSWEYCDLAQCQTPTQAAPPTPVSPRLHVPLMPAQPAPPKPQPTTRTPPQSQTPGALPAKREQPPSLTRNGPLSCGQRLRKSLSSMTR
Nature of the assay: Determination of Human Factor XIIa (hFXIIa) inhibition, fluorogenic substrate IC50 assay. It counts as biochemical. Conditions: fluorogenic substrate H-DPro-Phe-Arg-AFC at Km, 25° C., read-out: Human FXIIa IC50. The protocol: Determination of Human Factor XIIa (hFXIIa) inhibition
The Km for the cleavage of the substrate by hFXIIa was determined by standard transformation of the Michaelis-Menten equation, with subsequent inhibition assays performed at substrate Km concentration.

The target of assay [2] is FXa (Homo sapiens, UniProt P00742). In words: Related protease inhibition: FXa, fluorogenic substrate. The format is biochemical. As to conditions: fluorogenic substrate at Km, 25° C.; H1-H3 = % activity at 40 μM. The protocol: Human serine protease enzyme Plasma Kallikrein, KLK1, FXa, Plasmin, Thrombin and Trypsin were assayed for enzymatic activity using an appropriate fluorogenic substrate at Km concentration, FXIa at fixed substrate concentration of 100 μM and various concentrations of the test compound.
Chain of FXa (P00742 235-488 limits assumed): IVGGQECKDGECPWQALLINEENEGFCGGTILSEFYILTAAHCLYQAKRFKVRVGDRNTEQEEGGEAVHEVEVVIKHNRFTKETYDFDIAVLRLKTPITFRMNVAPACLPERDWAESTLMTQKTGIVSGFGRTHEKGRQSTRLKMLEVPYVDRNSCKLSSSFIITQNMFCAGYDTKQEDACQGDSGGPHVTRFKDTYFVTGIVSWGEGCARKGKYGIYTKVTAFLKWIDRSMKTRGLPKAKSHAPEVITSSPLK
Chain of FXa (P00742 41-179 partner limits assumed): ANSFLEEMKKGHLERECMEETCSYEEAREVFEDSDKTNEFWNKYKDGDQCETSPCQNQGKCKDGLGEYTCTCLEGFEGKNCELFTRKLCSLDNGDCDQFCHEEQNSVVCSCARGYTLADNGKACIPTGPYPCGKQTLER

The structures appear in SMILES notation. Some results are limits rather than exact numbers.

In the case of `Cc1cc(CNC(=O)c2nn(-c3cccc(Cl)c3)c3c(=O)n(-c4ccc5c(c4)C(=O)N(CCO)CC5)c(C)nc23)nn1C` [Example 3015, 1-(3-chlorophenyl)-N-((1,5-dimethyl-1H-pyrazol-3-yl)methyl)-6-(2-(2-hydroxyethyl)-1-oxo-1,2,3,4-tetrahydroisoquinolin-7-yl)-5-methyl-7-oxo-6,7-dihydro-1H-pyrazolo[4,3-d]pyrimidine-3-carboxamide], the IC50 (commonly the midpoint of a concentration-inhibition curve) in assay [1] was 10 to 100 nM; in assay [2], more than 40000 nM.

Consider `CN1CCc2ccc(N3CCc4c(C(=O)NC5CCOCC5)nn(-c5cccc(Cl)c5)c4C3=O)cc2C1=O` [Example 1203, 1-(3-chlorophenyl)-6-(2-methyl-1-oxo-1,2,3,4-tetrahydroisoquinolin-7-yl)-7-oxo-N-(tetrahydro-2H-pyran-4-yl)-4,5,6,7-tetrahydro-1H-pyrazolo[3,4-c]pyridine-3-carboxamide], for which the IC50 was 100 to 300 nM in assay [1] and more than 40000 nM in assay [2].

For `Cc1cc(CNC(=O)c2nn(-c3cccc(Cl)c3)c3c2CCN(c2ccc4c(c2)C(=O)N(CCO)[C@H](C)CO4)C3=O)n[nH]1` [Example 1373, (R)-1-(3-chlorophenyl)-6-(4-(2-hydroxyethyl)-3-methyl-5-oxo-2,3,4,5-tetrahydrobenzo[f][1,4]oxazepin-7-yl)-N-((5-methyl-1H-pyrazol-3-yl)methyl)-7-oxo-4,5,6,7-tetrahydro-1H-pyrazolo[3,4-c]pyridine-3-carboxamide], the IC50 in assay [1] was 300 to 1000 nM; in assay [2], more than 40000 nM.

In the case of `CC(=O)N1CCCc2ccc(N3CCc4c(C(=O)NCc5cnccc5C)nn(-c5cccc(Cl)c5)c4C3=O)cc21` [Example 1314, 6-(1-acetyl-1,2,3,4-tetrahydroquinolin-7-yl)-1-(3-chlorophenyl)-N-((4-methylpyridin-3-yl)methyl)-7-oxo-4,5,6,7-tetrahydro-1H-pyrazolo[3,4-c]pyridine-3-carboxamide], the values for the IC50 in assay [1] and in assay [2] were 100 to 300 nM and 10000 to 40000 nM, respectively.

Regarding `CC(=O)NCc1nn(-c2cccc(Cl)c2)c2c1CCN(c1ccc3c(c1)C(=O)N(C)CC3)C2=O` [Example 1385, N-((1-(3-chlorophenyl)-6-(2-methyl-1-oxo-1,2,3,4-tetrahydroisoquinolin-7-yl)-7-oxo-4,5,6,7-tetrahydro-1H-pyrazolo[3,4-c]pyridin-3-yl)methyl)acetamide], the values for the IC50 in assay [1] and in assay [2] were 1000 to 3000 nM and 3000 to 10000 nM, respectively.

As to `Cc1c(Cl)c(CNC(=O)c2nn(-c3cccc(Cl)c3)c3c2CCN(c2ccc4c(c2)C(=O)N(CC(N)=O)CCO4)C3=O)nn1C` [Example 1394, 6-(4-(2-amino-2-oxoethyl)-5-oxo-2,3,4,5-tetrahydrobenzo[f][1,4]oxazepin-7-yl)-N-((4-chloro-1,5-dimethyl-1H-pyrazol-3-yl)methyl)-1-(3-chlorophenyl)-7-oxo-4,5,6,7-tetrahydro-1H-pyrazolo[3,4-c]pyridine-3-carboxamide], the IC50 in assay [1] was 10 to 100 nM; in assay [2], 300 to 1000 nM.

Take `CN1CCc2ccc(N3CCc4c(C(=O)NCCO)nn(-c5cccc(Cl)c5)c4C3=O)cc2C1=O` [Example 1340, 1-(3-chlorophenyl)-N-(2-hydroxyethyl)-6-(2-methyl-1-oxo-1,2,3,4-tetrahydroisoquinolin-7-yl)-7-oxo-4,5,6,7-tetrahydro-1H-pyrazolo[3,4-c]pyridine-3-carboxamide]: the IC50 in assay [1] was 300 to 1000 nM; in assay [2], more than 40000 nM.

As for `Cc1ccncc1CNC(=O)c1nn(-c2cccc(Cl)c2)c2c1CCN(c1ccc3c(c1)C(=O)N(C)CC3)C2=O` [Example 1159, 1-(3-Chlorophenyl)-6-(2-methyl-1-oxo-1,2,3,4-tetrahydroisoquinolin-7-yl)-N-((4-methylpyridin-3-yl)methyl)-7-oxo-4,5,6,7-tetrahydro-1H-pyrazolo[3,4-c]pyridine-3-carboxamide], the IC50 in assay [1] was 10 to 100 nM; in assay [2], more than 40000 nM.
